These results are taken from patent EP3335764A1, “A STRAIN OF A[…] APPLICATIONS THEREOF” (Infinitec Activos S.L., priority 2016, dated 2018).

This experiment concerns Prostaglandin E2 (PGE2). Kind of experiment: Anti-inflammatory activity: PGE2 quantification by ELISA in cells stimulated by IL-1α. Type of experiment: cell-based. Conditions: IL-1α (5 pM), Cycloheximide 100 µg/ml. As for the experimental part:
When cells are stimulated by an inflammatory agent PGE2 is synthesized de novo and released into the extracellular space. Thus quantification of PGE2 is used to asses the anti-inflammatory activity products.
In the present example the anti-inflammatory activity of the extract of example 2 was determined by quantification of PGE2 in cells stimulated by IL-1α using a kit for an enzyme-linked immunosorbent assay (ELISA). The kit used was Prostaglandin E2 EIA kit Item n° 514010 from Cayman Chemical.
Prostaglandin E2 assay is based on competition between the PGE^2 to be determined and a fixed amount of added PGE2-acetylcholinesterase (AChE) conjugate (PGE2 tracer) for a limited amount of PGE2 monoclonal antibody. The amount of PGE2 tracer able to bind the PGE2 monoclonal antibody will be inversely proportional to the concentration of PGE2 in the well. Both the antibody-PGE2 complex and then antibody-PGE2 tracer complex bind to polyclonal goat anti-mouse IgG previously bound to the well. Then the plate is washed to remove any unbound reagent and Ellman's reagent is added to determine the amount of AChE bound to the well. […] The intensity of this color, determined by UV-Vis spectrophotometry, is proportional to the amount of PGE2 tracer bound […], which is inversely proportional to the amount of PGE2 present in the free well during incubation.

The structures appear in SMILES notation.

As for `C[C@@H]1C[C@@H]([C@H](O)CC2CC(=O)NC(=O)C2)C(=O)[C@@H](C)C1` [Cycloheximide], the “PGE2” value worked out at 31.85 pg/mL and the inhibition at 100 µg/mL turned out to be 97.6%.
